Drawing on patent US20070003586A1, “Insecticidal coating for use on cellulosic substrates” (priority 2005, published 2007), this text covers LD50 for one molecule.

This data set is described as follows: LD50 (lethal dose 50%) value. As to conditions: rat, in vivo; insecticide as such; subjects typically rats. On the procedure: According to one aspect of the present invention, an insecticidal coating composition for use on cellulosic substrates is provided comprising a polyvinyl acetate emulsion; a vinyl acetate ethylene copolymer emulsion; and an insecticide having an LD50 value of between about 14,500 to about 15,500 mg/kg. By “LD50” value, it is meant “lethal dose 50%” value, which indicates the quantity of a substance, which, when administered to a population of subjects (typically rats), will cause 50% of the subjects to perish.

The term LD50 denotes the dose at which mortality reaches 50%. Read a high LD50 as lower toxicity.

The structures appear in SMILES notation.

`CC1(C)[C@H](C(=O)O[C@H](C#N)c2cccc(Oc3ccccc3)c2)[C@@H]1C=C(Br)Br` [deltamethrin, (S)-cyano-3-phenoxybenzyl(1R)-cis-3-(2,2-dibromovinyl)-2,2-dimethylcyclopropane carboxylate] yielded a median lethal dose (LD50) of about 15000 mg/kg.
